Test results: PMC3100199 (ACS medicinal chemistry letters, 2011)

Experiments:
PKD1 [1] = target: T1, PKD1 (Homo sapiens, UniProt Q15139); conditions: PKD; cited from earlier work
T1 sequence (Q15139 1-912): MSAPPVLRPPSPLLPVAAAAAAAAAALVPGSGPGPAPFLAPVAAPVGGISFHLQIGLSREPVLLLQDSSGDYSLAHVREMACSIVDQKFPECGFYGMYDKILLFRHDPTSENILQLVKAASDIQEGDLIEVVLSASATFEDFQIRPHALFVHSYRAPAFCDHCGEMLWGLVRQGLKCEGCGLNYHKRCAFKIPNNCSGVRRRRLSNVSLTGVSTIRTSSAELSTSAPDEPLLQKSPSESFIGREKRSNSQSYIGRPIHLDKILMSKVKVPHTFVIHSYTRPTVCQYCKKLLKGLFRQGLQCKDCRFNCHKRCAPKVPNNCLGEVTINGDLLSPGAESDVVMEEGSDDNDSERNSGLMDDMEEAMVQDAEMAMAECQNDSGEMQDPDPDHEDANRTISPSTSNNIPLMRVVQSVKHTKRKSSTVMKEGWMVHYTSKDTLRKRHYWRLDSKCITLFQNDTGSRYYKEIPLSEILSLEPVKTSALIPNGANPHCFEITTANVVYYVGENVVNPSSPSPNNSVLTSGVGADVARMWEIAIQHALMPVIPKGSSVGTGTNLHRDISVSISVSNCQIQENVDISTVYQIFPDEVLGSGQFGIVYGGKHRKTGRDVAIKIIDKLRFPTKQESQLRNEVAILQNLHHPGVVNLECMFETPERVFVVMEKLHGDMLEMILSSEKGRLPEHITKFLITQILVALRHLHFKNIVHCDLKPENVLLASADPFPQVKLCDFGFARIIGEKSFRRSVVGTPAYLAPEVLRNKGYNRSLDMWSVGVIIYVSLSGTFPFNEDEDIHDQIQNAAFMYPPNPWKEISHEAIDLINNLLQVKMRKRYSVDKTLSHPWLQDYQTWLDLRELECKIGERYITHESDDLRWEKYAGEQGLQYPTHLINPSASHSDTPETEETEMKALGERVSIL

PKCβI = PKCβI (Homo sapiens, UniProt P05771); experiment: Selectivity assay against PKCβI; format: biochemical; conditions: selectivity counterscreen
Sequence of PKCβI (P05771 whole entry): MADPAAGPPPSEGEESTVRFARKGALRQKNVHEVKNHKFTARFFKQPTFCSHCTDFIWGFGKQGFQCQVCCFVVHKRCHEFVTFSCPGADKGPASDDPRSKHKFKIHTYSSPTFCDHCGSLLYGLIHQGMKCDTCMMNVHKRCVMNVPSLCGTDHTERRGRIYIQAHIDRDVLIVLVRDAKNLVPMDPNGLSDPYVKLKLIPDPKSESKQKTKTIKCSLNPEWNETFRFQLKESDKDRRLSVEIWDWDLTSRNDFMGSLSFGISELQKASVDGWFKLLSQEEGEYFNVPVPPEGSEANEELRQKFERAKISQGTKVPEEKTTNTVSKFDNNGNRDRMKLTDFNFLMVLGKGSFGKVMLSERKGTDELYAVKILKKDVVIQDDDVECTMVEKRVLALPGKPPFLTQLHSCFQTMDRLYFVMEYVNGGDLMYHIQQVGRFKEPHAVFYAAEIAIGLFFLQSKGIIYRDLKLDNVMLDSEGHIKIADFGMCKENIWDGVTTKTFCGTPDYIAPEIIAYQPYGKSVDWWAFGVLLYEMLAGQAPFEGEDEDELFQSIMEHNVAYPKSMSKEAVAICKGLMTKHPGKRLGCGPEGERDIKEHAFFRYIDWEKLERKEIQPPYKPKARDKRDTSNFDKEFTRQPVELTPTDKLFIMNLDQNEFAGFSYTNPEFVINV

PKCα = PKCα (Homo sapiens, UniProt P17252); experiment: Selectivity assay against PKCα; format: biochemical; conditions: selectivity counterscreen
PKCδ = PKCδ (Homo sapiens, UniProt Q05655); experiment: Selectivity assay against PKCδ; format: biochemical; conditions: selectivity counterscreen
Sequence of PKCδ (Q05655 whole entry): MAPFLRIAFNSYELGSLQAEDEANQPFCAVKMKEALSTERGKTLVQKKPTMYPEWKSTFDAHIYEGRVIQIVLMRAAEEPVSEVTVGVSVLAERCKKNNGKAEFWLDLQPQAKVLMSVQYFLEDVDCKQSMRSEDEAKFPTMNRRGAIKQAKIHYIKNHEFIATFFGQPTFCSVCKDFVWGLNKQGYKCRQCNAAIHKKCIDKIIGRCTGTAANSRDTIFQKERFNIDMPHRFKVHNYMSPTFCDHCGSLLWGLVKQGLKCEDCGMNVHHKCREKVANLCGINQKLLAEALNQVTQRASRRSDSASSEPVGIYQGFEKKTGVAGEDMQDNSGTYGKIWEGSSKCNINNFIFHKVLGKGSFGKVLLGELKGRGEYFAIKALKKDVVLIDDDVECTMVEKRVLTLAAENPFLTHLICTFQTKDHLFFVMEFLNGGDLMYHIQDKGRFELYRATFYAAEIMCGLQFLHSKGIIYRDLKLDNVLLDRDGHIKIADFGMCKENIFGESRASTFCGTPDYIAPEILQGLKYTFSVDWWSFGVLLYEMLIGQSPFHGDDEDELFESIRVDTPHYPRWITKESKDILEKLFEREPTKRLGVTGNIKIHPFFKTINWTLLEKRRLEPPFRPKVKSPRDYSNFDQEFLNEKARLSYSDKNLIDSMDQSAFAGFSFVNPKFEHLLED

[2] = in vivo studies; cited from earlier work
PKD1 [3] = target: T1, PKD1; experiment: PKD1 radiometric kinase activity assay; format: biochemical; conditions: ratio of in vitro IC50 vs CID755673
[4] = target: T2, PKD1 autophosphorylation at S916 in LNCaP prostate cancer cells (Homo sapiens, UniProt Q15139); experiment: Cellular PKD1 autophosphorylation at S916; format: cell-based; conditions: vs CID755673
T2 sequence (Q15139 1-912): T1 sequence (Q15139 1-912)

activity against PKCβI (PKCβI) | activity against PKCα (PKCα) | activity against PKCδ (PKCδ) | Compound | mode of inhibition (ATP competition) (PKD1 [1]) | plasma half-life [2] | improvement in PKD1 in vitro potency over CID755673 (PKD1 [3]) [fold] | improvement (lowering) of cellular IC50 compared to CID755673 [4] [fold]
 |  |  | O=C1NCCCc2c1oc1ccc(O)cc21 [CID755673] | not an ATP-competitive inhibitor |  |  | 
did not detect significant activities | did not detect significant activities | did not detect significant activities | O=C1NCCCc2c1[nH]c1ccc(O)cc21 [kb-NB123-57] |  |  |  | 
 |  |  | O=C1NCCSc2c1sc1ccc(O)cc21 [kb-NB142-70] |  | short plasma half-life | ~7 | 5
did not detect significant activities | did not detect significant activities | did not detect significant activities | COc1ncc2sc3c(c2n1)SCCNC3=O [kmg-NB4-23] |  |  |  | 
did not detect significant activities | did not detect significant activities | did not detect significant activities | [N-]=[N+]=Nc1ccc2sc3c(c2c1)SCCNC3=O [mcf292-08] |  |  |  | 
